Assay results from ChEMBL document CHEMBL1201862, “PubChem BioAssay data set” (2004).
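Step 1: Grow cells in 96-well plates. Step 2: Expose to compound for 48 hours at 5 concentrations. Step 3: Interpolate endpoints linearly; if unreached, use highest concentration. At the GI50, growth is halved.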 Active and inactive are the calls of the source. Rule as the data show it: active = GI50 up to about 1.1 µM and inactive = higher.

Tests used:
Assay in all cases: NCI tumour cell line growth inhibition, 48 h
[1] = tested on: ACHN
[2] = tested on: OVCAR-5
[3] = tested on: SW-620
[4] = tested on: SF-268
[5] = tested on: CAKI-1
[6] = tested on: K562
[7] = tested on: CCRF-CEM
[8] = tested on: SK-OV-3
[9] = tested on: NCI-H460
[10] = tested on: IGROV-1
[11] = tested on: M19-MEL
[12] = tested on: SN12C
[13] = tested on: TK-10
[14] = tested on: HT-29
[15] = tested on: RXF 393
[16] = tested on: SNB-75
[17] = tested on: HOP-92
[18] = tested on: HCT-116
[19] = tested on: SK-MEL-2
[20] = tested on: 786-0
[21] = tested on: RPMI-8226
[22] = tested on: COLO 205
[23] = tested on: A549
[24] = tested on: OVCAR-4
[25] = tested on: SNB-78
[26] = tested on: SR
[27] = tested on: Malme-3M
[28] = tested on: SK-MEL-28
[29] = tested on: SF-295
[30] = tested on: UACC-62
[31] = tested on: UACC-257
[32] = tested on: DLD-1
[33] = tested on: KM12
[34] = tested on: NCI-H522
[35] = tested on: LOX IMVI
[36] = tested on: UO-31
[37] = tested on: DMS-273
[38] = tested on: HCT-15
[39] = tested on: MOLT-4
[40] = tested on: SF-539
[41] = tested on: LXFL 529
[42] = tested on: HOP-18
[43] = tested on: U-251
[44] = tested on: HL-60
[45] = tested on: OVCAR-8
[46] = tested on: HOP-62
[47] = tested on: SK-MEL-5
[48] = tested on: NCI-H226
[49] = tested on: NCI-H23
[50] = tested on: M14
[51] = tested on: DMS-114
[52] = tested on: SNB-19
[53] = tested on: OVCAR-3
[54] = tested on: KM-20L2
[55] = tested on: EKVX
[56] = tested on: HCC 2998
[57] = tested on: MDA-MB-435
[58] = tested on: MDA-N
[59] = tested on: A498
[60] = tested on: MCF7
[61] = tested on: DU-145
[62] = tested on: XF498
[63] = tested on: PC-3
[64] = tested on: NCI/ADR-RES
[65] = tested on: MDA-MB-231
[66] = tested on: BT-549
[67] = tested on: Hs-578T
[68] = tested on: T47D

In the case of `COc1ccc(C(C#N)NNC(=O)Cc2ccccc2)cc1OC` (stereo not drawn), the GI50 [1] is reported as > 100 µM (inactive), the GI50 [2] is reported as > 100 µM (inactive) and the GI50 [3] is reported as > 100 µM (inactive). For the same compound, the GI50 [4] was > 100 µM (inactive), the GI50 [5] was > 100 µM (inactive) and the GI50 [6] was > 100 µM (inactive). The GI50 [7] was > 100 µM (inactive), the GI50 [8] was > 100 µM (inactive) and the GI50 [9] was > 100 µM (inactive). For the same compound, the GI50 [10] was > 100 µM (inactive), the GI50 [11] was > 100 µM (inactive) and the GI50 [12] was > 100 µM (inactive). For the same compound, the GI50 [13] was > 100 µM (inactive), the GI50 [14] was > 100 µM (inactive) and the GI50 [15] was > 100 µM (inactive). The GI50 [16] was 39.9 µM (inactive), the GI50 [17] was > 100 µM (inactive) and the GI50 [18] was > 100 µM (inactive). The GI50 [19] was > 100 µM (inactive), the GI50 [20] was > 100 µM (inactive) and the GI50 [21] was > 100 µM (inactive). The GI50 [22] was > 100 µM (inactive), the GI50 [23] was > 100 µM (inactive) and the GI50 [24] was > 100 µM (inactive). The GI50 [25] was > 100 µM (inactive), the GI50 [26] was > 100 µM (inactive) and the GI50 [27] was > 100 µM (inactive). For the same compound, the GI50 [28] was > 100 µM (inactive), the GI50 [29] was > 100 µM (inactive) and the GI50 [30] was > 100 µM (inactive). The GI50 [31] was > 100 µM (inactive), the GI50 [32] was > 100 µM (inactive) and the GI50 [33] was > 100 µM (inactive). The GI50 [34] was > 100 µM (inactive), the GI50 [35] was > 100 µM (inactive) and the GI50 [36] was > 100 µM (inactive). The GI50 [37] was > 100 µM (inactive), the GI50 [38] was greater than 100 µM and the GI50 [39] was > 100 µM (inactive). For the same compound, the GI50 [40] was > 100 µM (inactive), the GI50 [41] was > 100 µM (inactive) and the GI50 [42] was > 100 µM (inactive). For the same compound, the GI50 [43] was > 100 µM (inactive), the GI50 [44] was > 100 µM (inactive) and the GI50 [45] was > 100 µM (inactive). For the same compound, the GI50 [46] was > 100 µM (inactive), the GI50 [47] was > 100 µM (inactive) and the GI50 [48] was > 100 µM (inactive). For the same compound, the GI50 [49] was > 100 µM (inactive), the GI50 [50] was > 100 µM (inactive) and the GI50 [51] was > 100 µM (inactive).
`COc1cc(C2c3cc4c(cc3[C@@H](NCCN3CCOCC3)C3COC(=O)[C@H]23)OCO4)cc(OC)c1O` (stereo partly drawn) was tested, and the GI50 [3] was 1.23 µM (inactive), the GI50 [4] was 1.56 µM (inactive) and the GI50 [5] was 1.97 µM (inactive). For the same compound, the GI50 [6] was 5.56 µM (inactive), the GI50 [10] was 8.11 µM (inactive) and the GI50 [52] was 2.51 µM (inactive). For the same compound, the GI50 [13] was 7.85 µM (inactive), the GI50 [53] was 8.02 µM (inactive) and the GI50 [14] was 4.65 µM (inactive). For the same compound, the GI50 [54] was 2.96 µM (inactive), the GI50 [15] was 2.3 µM (inactive) and the GI50 [17] was 1.04 µM (active). For the same compound, the GI50 [18] was 3.01 µM (inactive), the GI50 [19] was 4.17 µM (inactive) and the GI50 [55] was 14.2 µM (inactive). For the same compound, the GI50 [20] was 1.19 µM (inactive), the GI50 [24] was 17.8 µM (inactive) and the GI50 [25] was 16.5 µM (inactive). For the same compound, the GI50 [27] was 2.31 µM (inactive), the GI50 [28] was 3.71 µM (inactive) and the GI50 [29] was 1.35 µM (inactive). For the same compound, the GI50 [30] was 1.21 µM (inactive), the GI50 [56] was 1.97 µM (inactive) and the GI50 [31] was 3.23 µM (inactive). The GI50 [32] was 6.18 µM (inactive), the GI50 [33] was 2.42 µM (inactive) and the GI50 [34] was 2.51 µM (inactive). The GI50 [35] was 0.962 µM (active), the GI50 [36] was 1.77 µM (inactive) and the GI50 [37] was 0.437 µM (active). The GI50 [38] was 1.65 µM, the GI50 [40] was 0.836 µM (active) and the GI50 [41] was 11.3 µM (inactive). The GI50 [42] was 2.81 µM (inactive), the GI50 [43] was 0.906 µM (active) and the GI50 [45] was 2.18 µM (inactive). The GI50 [46] was 0.541 µM (active) and the GI50 [50] was 2.57 µM (inactive).
With `NCCCNc1ccc2c3c(nn2CCNCCO)-c2c(O)ccc(O)c2C(=O)c13` the GI50 [1] was 0.989 µM (active), the GI50 [2] was 4.28 µM (inactive) and the GI50 [3] was 1.15 µM (inactive). For the same compound, the GI50 [4] was 1.35 µM (inactive), the GI50 [8] was 1.28 µM (inactive) and the GI50 [10] was 2.46 µM (inactive). The GI50 [11] was 1.5 µM (inactive), the GI50 [52] was 0.354 µM (active) and the GI50 [13] was 4.2 µM (inactive). The GI50 [53] was 5.13 µM (inactive), the GI50 [57] was 9.71 µM (inactive) and the GI50 [14] was 3.68 µM (inactive). For the same compound, the GI50 [58] was 2.75 µM (inactive), the GI50 [54] was 2.89 µM (inactive) and the GI50 [59] was 1.82 µM (inactive). For the same compound, the GI50 [16] was 0.889 µM (active), the GI50 [60] was 0.418 µM (active) and the GI50 [20] was 2.38 µM (inactive). For the same compound, the GI50 [21] was 1.2 µM (inactive), the GI50 [22] was 1.44 µM (inactive) and the GI50 [61] was 1.29 µM (inactive). The GI50 [24] was 3.93 µM (inactive), the GI50 [25] was 1.42 µM (inactive) and the GI50 [26] was 0.253 µM (active). The GI50 [27] was 1.51 µM (inactive), the GI50 [62] was 0.125 µM (active) and the GI50 [29] was 0.889 µM (active). The GI50 [30] was 0.883 µM (active), the GI50 [31] was 5.81 µM (inactive) and the GI50 [32] was 4.08 µM (inactive). For the same compound, the GI50 [63] was 2.84 µM (inactive), the GI50 [64] was 29.7 µM (inactive) and the GI50 [33] was 3.78 µM (inactive). For the same compound, the GI50 [65] was 3.84 µM (inactive), the GI50 [34] was 1.18 µM (inactive) and the GI50 [35] was 0.927 µM (active). The GI50 [66] was 0.695 µM (active), the GI50 [37] was 0.366 µM (active) and the GI50 [38] was 5.01 µM. For the same compound, the GI50 [39] was 0.21 µM (active), the GI50 [42] was 2.32 µM (inactive) and the GI50 [67] was 0.787 µM (active). The GI50 [46] was 0.362 µM (active), the GI50 [47] was 0.925 µM (active) and the GI50 [48] was 0.406 µM (active). For the same compound, the GI50 [68] was 2.18 µM (inactive), the GI50 [49] was 1.25 µM (inactive) and the GI50 [50] was 3.2 µM (inactive). The GI50 [51] was 0.561 µM (active).
